In PMC4890124, “Antimicrobial activity, improved cell selectivity and mode of action of short PMAP-36-derived peptides against bacteria and Candida” (Scientific Reports, 2016):
Converted amounts (≈) assume the structure as drawn. Where two headings read alike, the source gives them in different places. Marks after values point to notes of the source that are not given here. Peptide text beside a SMILES is read from it.

Experiments:
[1] = tested on: C. albicans CA276 (clinical isolate); test: microbe, parasite or virus in culture; type: cell-based, Candida albicans
Description: (§1) The antifungal activities were monitored in RPMI-1640 broth medium by a 2-fold microdilution assay according to the Clinical and Laboratory Standards Institute (CLSI) methods. The Candida albicans CGMCC 2.2086, Candida tropicalis CGMCC 2.1975, and Candida krusei CGMCC 2.1857 fungal strains were purchased from the China General Microbiological Culture Collection Center (CGMCC, Beijing, China). Clinically isolated Candida albicans CA2761 was provided by the 4th Affiliated Hospital of Harbin Medical University. Briefly, fungal strains were cultured on YPD agar plates (1% peptone, 0.5% yeast extract, 1% glucose and 2% agar) at 28 °C to prepare Candida suspensions with a turbidity of a 0.5 McFarland standard. A total of 50 μl inoculum cell suspension diluted in RPMI-1640 broth medium was added to an equal volume of peptide solution to achieve a final peptide concentrations ranging from 0.25 μM to 128 μM in a 96-well plate. Pure broth alone or with inoculum suspensions was used as the negative control or the positive control, respectively. The plate was incubated at 28 °C for 48 h. MIC was considered the lowest concentration at which no fungal growth was visually observed under experimental conditions. […] After 48 h incubation at 28 °C, MFC was defined as the lowest concentration of peptides that killed at least 99.9% of the initial inoculums. Experiments were performed in triplicate with three biological replicates.

[2] = tested on: Candida krusei CGMCC 2.1857; test: microbe, parasite or virus in culture; type: cell-based
Description: as §1

[3] = tested on: Candida tropicalis CGMCC 2.1975; test: microbe, parasite or virus in culture; type: cell-based
Description: as §1

[4] = tested on: Candida albicans CGMCC 2.2086; test: microbe, parasite or virus in culture; type: cell-based
Description: as §1

[5] = tested on: Staphylococcus epidermidis ATCC 12228; type: cell-based; conditions: ATCC 12228, 18 h
Description: (§2) The peptide antibacterial activity was determined against both gram-positive and gram-negative bacteria strains, including Escherichia coli ATCC 25922, Escherichia coli UB1005, Salmonella enterica serovar typhimurium C77-31, Staphylococcus aureus ATCC 29213, Staphylococcus aureus ATCC 25923, Bacillus subtilis CMCC 63501, and Staphylococcus epidermidis ATCC 12228. Clinically isolated Escherichia coli EC183 was provided by the 4th Affiliated Hospital of Harbin Medical University. MIC of the peptides was measured using a modified version of the National Committee for Clinical Laboratory Standards (NCCLS) broth microdilution method as described previously. The bacterial strains were inoculated and grown to mid-log phase in fresh Mueller-Hinton broth (MHB) at 37 °C. Bacterial inoculum suspensions were prepared at a final concentration of approximately 1 × 10^5 CFU/ml. Peptides were 2-fold serially diluted to make different concentrations, from 0.5 to 256 μM. Equal volumes of inoculum suspensions were then added to each well of a sterile 96-well plate with different concentrations of peptides, and the plate was incubated for 18 h at 37 °C. Broth with or without bacteria was employed as the positive control or the negative control, respectively. MIC was defined as the lowest concentration of peptides that prevented visible turbidity by visual inspection. […] After overnight incubation at 37 °C, MBC was defined as the lowest concentration of peptides that killed at least 99.9% of the initial inoculums. Experiments were performed in triplicate with three biological replicates.

Escherichia coli UB1005 = type: cell-based; conditions: UB1005, 18 h
Description: as §2

[6] = tested on: Escherichia coli ATCC 25922; type: cell-based; conditions: ATCC 25922, 18 h
Description: as §2

[7] = tested on: Bacillus subtilis CMCC 63501; type: cell-based; conditions: CMCC 63501, 18 h
Description: as §2

[8] = tested on: Clinically isolated Escherichia coli EC183; type: cell-based; conditions: Clinically isolated EC183, 18 h
Description: as §2

[9] = tested on: Staphylococcus aureus ATCC 25923; type: cell-based; conditions: ATCC 25923, 18 h
Description: as §2

[10] = tested on: Staphylococcus aureus ATCC 29213; type: cell-based; conditions: ATCC 29213, 18 h
Description: as §2

[11] = tested on: Salmonella enterica serovar typhimurium C77-31; type: cell-based; conditions: three independent experiments; for MBC S. typhi C77-31: lowest concentration killing at least 99.9% of initial inoculum
Description: as §2

[12] = Candida albicans, CLSI 2-fold microdilution, RPMI-1640, 28 °C for 48 h, visual, three independent experiments
[13] = Candida albicans, lowest concentration killing at least 99.9% of initial inoculum, YPD agar, 48 h at 28 °C, three independent experiments
[14] = Pichia kudriavzevii, CGMCC2, CLSI 2-fold microdilution, RPMI-1640, 28 °C for 48 h, visual, three independent experiments
[15] = Pichia kudriavzevii, CGMCC2, lowest concentration killing at least 99.9% of initial inoculum, YPD agar, 48 h at 28 °C, three independent experiments
[16] = Candida tropicalis, CGMCC2, CLSI 2-fold microdilution, RPMI-1640, 28 °C for 48 h, visual, three independent experiments
[17] = Candida tropicalis, CGMCC2, lowest concentration killing at least 99.9% of initial inoculum, YPD agar, 48 h at 28 °C, three independent experiments
[18] = Candida albicans, CGMCC2, CLSI 2-fold microdilution, RPMI-1640, 28 °C for 48 h, visual, three independent experiments
[19] = Candida albicans, CGMCC2, lowest concentration killing at least 99.9% of initial inoculum, YPD agar, 48 h at 28 °C, three independent experiments
[20] = CGMCC 2.1975, 48 h, read-out: MFC C. tropicalis 2.1975
[21] = CGMCC 2.1975, 48 h, read-out: MIC C. tropicalis 2.1975

Structure (SMILES)	MFC C. albicans CA276 ([1]; CA276 (clinical isolate, 48 h)) [µM]	MIC C. albicans CA276 ([1]; CA276 (clinical isolate, 48 h)) [µM]	MFC C. krusei 2.1857 ([2]; CGMCC 2.1857, 48 h) [µM]	MIC C. krusei 2.1857 ([2]; CGMCC 2.1857, 48 h) [µM]	MFC C. albicans 2.2086 ([4]; CGMCC 2.2086, 48 h) [µM]	MIC C. albicans 2.2086 ([4]; CGMCC 2.2086, 48 h) [µM]	MBC S. epidermidis 12228 [5]	MBC E. coli 1005 (Escherichia coli UB1005)	MBC E. coli 25922 [6] [µM]	MBC B. subtilis 63501 [7]	MIC B. subtilis 63501 [7]	MBC E. coli EC183 [8] [µM]	MIC E. coli EC183 [8] [µM]	MBC S. aureus 25923 [9]	MBC S. aureus 29213 [10] [µM]	MBC S. typhi C77-31 [11] [µM]	MIC [1, 12] [µM]	MFC [1, 13] [µM]	MIC [2, 14] [µM]	MFC [2, 15] [µM]	other results
CC[C@H](C)[C@H](NC(=O)[C@H](Cc1c[nH]c2ccccc12)NC(=O)[C@H](CCCCN)NC(=O)[C@H](CC(C)C)NC(=O)[C@@H](NC(=O)[C@H](CCCCN)NC(=O)CNC(=O)[C@@H](NC(=O)[C@H](CCCCN)NC(=O)[C@H](CCCCN)NC(=O)[C@H](CC(C)C)NC(=O)[C@@H](N)CCCNC(=N)N)[C@@H](C)CC)C(C)C)C(N)=O [RI12] (H-RLKKIGKVLKWI-NH2)	128 (≈ 190 µg/mL)	128 (≈ 190 µg/mL)	16 (≈ 23.7 µg/mL)	16 (≈ 23.7 µg/mL)	128 (≈ 190 µg/mL)	128 (≈ 190 µg/mL)	64^c (64) μM	32 µM (≈ 47.4 µg/mL)	32 (≈ 47.4 µg/mL)	8 µM (≈ 11.8 µg/mL)	2 µM (≈ 2.96 µg/mL)	4 (≈ 5.92 µg/mL)	2 (≈ 2.96 µg/mL)	128^c (128) μM	128 (≈ 190 µg/mL)	32 (≈ 47.4 µg/mL)					MFC C. tropicalis 2.1975 ([3]; CGMCC 2.1975, 48 h): 8 µM (≈ 11.8 µg/mL); MIC C. tropicalis 2.1975 ([3]; CGMCC 2.1975, 48 h): 8 µM (≈ 11.8 µg/mL)
C[C@@H]1[C@H](O)[C@@H](C)/C=C/C=C/C=C/C=C/C=C/C=C/C=C/[C@H](O[C@@H]2O[C@H](C)[C@@H](O)[C@H](N)[C@@H]2O)C[C@@H]2O[C@](O)(C[C@@H](O)C[C@@H](O)[C@H](O)CC[C@@H](O)C[C@@H](O)CC(=O)O[C@H]1C)C[C@H](O)[C@H]2C(=O)O [Amphotericin B, reference compound]																	0.5 (≈ 0.462 µg/mL)	1 (≈ 0.924 µg/mL)	1 (≈ 0.924 µg/mL)	1 (≈ 0.924 µg/mL)	MIC [3, 16]: 0.25 µM (≈ 0.231 µg/mL); MFC [3, 17]: 1 µM (≈ 0.924 µg/mL); MIC [4, 18]: 0.25 µM (≈ 0.231 µg/mL); MFC [4, 19]: 0.25 µM (≈ 0.231 µg/mL)
OC(Cn1cncn1)(Cn1cncn1)c1ccc(F)cc1F [Fluconazole, reference compound]																	2 (≈ 0.613 µg/mL)	2 (≈ 0.613 µg/mL)	64 (≈ 19.6 µg/mL)	64 (≈ 19.6 µg/mL)	MIC [3, 16]: 0.25 µM (≈ 0.0766 µg/mL); MFC [3, 17]: 1 µM (≈ 0.306 µg/mL); MIC [4, 18]: 2 µM (≈ 0.613 µg/mL); MFC [4, 19]: 2 µM (≈ 0.613 µg/mL)
CC[C@H](C)[C@H](NC(=O)[C@H](Cc1c[nH]c2ccccc12)NC(=O)[C@H](CCCCN)NC(=O)[C@H](CC(C)C)NC(=O)[C@@H](NC(=O)[C@H](CCCCN)NC(=O)CNC(=O)[C@@H](NC(=O)[C@H](CCCCN)NC(=O)[C@H](CCCCN)NC(=O)[C@H](CC(C)C)NC(=O)[C@H](CCCNC(=N)N)NC(=O)[C@H](CCCCN)NC(=O)[C@H](CCCNC(=N)N)NC(=O)[C@@H](NC(=O)[C@H](CCCCN)NC(=O)[C@H](CCCCN)NC(=O)[C@H](CCCNC(=N)N)NC(=O)[C@H](CC(C)C)NC(=O)[C@H](CCCNC(=N)N)NC(=O)[C@@H](N)CCCNC(=N)N)[C@@H](C)O)[C@@H](C)CC)C(C)C)C(N)=O [RI21] (H-RRLRKKTRKRLKKIGKVLKWI-NH2)							8 µM (≈ 21.6 µg/mL)	2 µM (≈ 5.41 µg/mL)	8 (≈ 21.6 µg/mL)	4 µM (≈ 10.8 µg/mL)	1 µM (≈ 2.7 µg/mL)	2 (≈ 5.41 µg/mL)	1 (≈ 2.7 µg/mL)	4 µM (≈ 10.8 µg/mL)	4 (≈ 10.8 µg/mL)	2 (≈ 5.41 µg/mL)					MFC ([1]; CA276 (clinical isolate, 48 h)): 32 µM (≈ 86.5 µg/mL); MIC ([1]; CA276 (clinical isolate, 48 h)): 8 µM (≈ 21.6 µg/mL); MFC ([2]; CGMCC 2.1857, 48 h, read-out: MFC C. krusei 2.1857): 4 µM (≈ 10.8 µg/mL); MIC ([2]; CGMCC 2.1857, 48 h, read-out: MIC C. krusei 2.1857): 2 µM (≈ 5.41 µg/mL); MFC [3, 20]: 2 µM (≈ 5.41 µg/mL); MIC [3, 21]: 1 µM (≈ 2.7 µg/mL); MFC ([4]; CGMCC 2.2086, 48 h, read-out: MFC C. albicans 2.2086): 16 µM (≈ 43.3 µg/mL); MIC ([4]; CGMCC 2.2086, 48 h, read-out: MIC C. albicans 2.2086): 8 µM (≈ 21.6 µg/mL); MIC S. epidermidis 12228 [5]: 4 µM (≈ 10.8 µg/mL); MIC E. coli 1005 (Escherichia coli UB1005): 2 µM (≈ 5.41 µg/mL); MIC E. coli 25922 [6]: 2 µM (≈ 5.41 µg/mL); MIC S. aureus 25923 [9]: 4 µM (≈ 10.8 µg/mL); MIC S. aureus 29213 [10]: 4 µM (≈ 10.8 µg/mL); MIC S. typhi C77-31 ([11]; broth microdilution, MHB, ~1 × 10^5 CFU/ml, 18 h at 37 °C, visual): 1 µM (≈ 2.7 µg/mL)
CC[C@H](C)[C@H](NC(=O)[C@H](CCCCN)NC(=O)[C@H](CCCCN)NC(=O)[C@H](CC(C)C)NC(=O)[C@H](CCCNC(=N)N)NC(=O)[C@H](CCCCN)NC(=O)[C@H](CCCNC(=N)N)NC(=O)[C@@H](NC(=O)[C@H](CCCCN)NC(=O)[C@H](CCCCN)NC(=O)[C@H](CCCNC(=N)N)NC(=O)[C@H](CC(C)C)NC(=O)[C@H](CCCNC(=N)N)NC(=O)[C@H](CCCNC(=N)N)NC(=O)[C@H](Cc1ccccc1)NC(=O)[C@H](CCCNC(=N)N)NC(=O)CN)[C@@H](C)O)C(=O)NCC(=O)N[C@@H](CCCCN)C(=O)N[C@H](C(=O)N[C@@H](CC(C)C)C(=O)N[C@@H](CCCCN)C(=O)N[C@@H](Cc1c[nH]c2ccccc12)C(=O)N[C@H](C(=O)N1CCC[C@H]1C(=O)N1CCC[C@H]1C(=O)N[C@H](C(=O)N[C@H](C(=O)NCC(=O)N[C@@H](CO)C(=O)N[C@H](C(=O)N1CCC[C@H]1C(=O)N[C@@H](CC(C)C)C(=O)NCC(=O)N[C@@H](CS)C(=O)NCC(N)=O)[C@@H](C)CC)C(C)C)[C@@H](C)CC)[C@@H](C)CC)C(C)C [PMAP-36] (H-GRFRRLRKKTRKRLKKIGKVLKWIPPIVGSIPLGCG-NH2)	128 (≈ 532 µg/mL)	128 (≈ 532 µg/mL)	8 (≈ 33.3 µg/mL)	8 (≈ 33.3 µg/mL)	128 (≈ 532 µg/mL)	128 (≈ 532 µg/mL)	4 µM (≈ 16.6 µg/mL)	2 ^c (2) μM	4 (≈ 16.6 µg/mL)	1 (1) μM	1 (1) μM	1 (≈ 4.16 µg/mL)	1 (≈ 4.16 µg/mL)	4 µM (≈ 16.6 µg/mL)	4 (≈ 16.6 µg/mL)	2 (≈ 8.31 µg/mL)					MFC [3, 20]: 2 µM (≈ 8.31 µg/mL); MIC [3, 21]: 1 µM (≈ 4.16 µg/mL)
